Here are results for 17 molecules from patent US8809348B2, “6-arylmethyl substituted pyrazolo[3,4-d]pyrimidines” (Boehringer Ingelheim International GmbH, priority 2003, dated 2014).

Counter-ions that a name gives are not always drawn.

The target in the first data set is T1, PDE9A (Homo sapiens, UniProt O76083).
T1 sequence (O76083 whole entry): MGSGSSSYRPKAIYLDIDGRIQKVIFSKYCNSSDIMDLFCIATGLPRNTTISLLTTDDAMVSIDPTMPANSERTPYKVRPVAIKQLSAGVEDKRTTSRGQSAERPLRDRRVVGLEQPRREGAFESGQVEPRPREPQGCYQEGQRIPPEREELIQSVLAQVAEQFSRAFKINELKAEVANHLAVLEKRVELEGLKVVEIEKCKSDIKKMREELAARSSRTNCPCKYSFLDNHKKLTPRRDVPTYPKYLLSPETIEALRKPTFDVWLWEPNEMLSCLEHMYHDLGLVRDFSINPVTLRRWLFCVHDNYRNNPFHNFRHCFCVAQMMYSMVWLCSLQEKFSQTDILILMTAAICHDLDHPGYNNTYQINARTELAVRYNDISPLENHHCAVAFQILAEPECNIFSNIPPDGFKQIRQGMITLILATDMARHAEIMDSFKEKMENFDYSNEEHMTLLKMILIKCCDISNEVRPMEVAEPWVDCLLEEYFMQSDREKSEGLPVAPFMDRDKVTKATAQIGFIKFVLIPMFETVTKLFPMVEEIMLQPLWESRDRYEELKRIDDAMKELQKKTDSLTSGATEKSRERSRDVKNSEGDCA
Assay: not given
As to conditions: concentrations of up to 100 μM; cited from earlier work.
As for `CCOC(=O)C1=C[C@]2(CC)CCCN3CCc4c(n1c1ccccc41)[C@@H]32` [vinpocetine], the “inhibition on the isolated enzyme” value is “no inhibition”. `OCCN(CCO)c1nc(N2CCCCC2)c2nc(N(CCO)CCO)nc(N3CCCCC3)c2n1` [dipyridamole]: the “inhibition on the isolated enzyme” value was “no inhibition”. As for `CC(C)Cn1c(=O)n(C)c(=O)c2[nH]cnc21` [IBMX], the “inhibition on the isolated enzyme” value is given as “no inhibition”. In the case of `COc1ccc(C2CNC(=O)C2)cc1OC1CCCC1` (stereo not drawn) [rolipram], the “inhibition on the isolated enzyme” value is reported as “no inhibition”. Turning to `CC(=O)Nc1ccc(-c2c[nH]c(=O)cn2)cc1` [SKF94120], the “inhibition on the isolated enzyme” value is recorded as “no inhibition”.

For the next data set, the target named is T2, Murine PDE9A (Mus musculus, UniProt O70628).
T2 sequence (O70628 1-534): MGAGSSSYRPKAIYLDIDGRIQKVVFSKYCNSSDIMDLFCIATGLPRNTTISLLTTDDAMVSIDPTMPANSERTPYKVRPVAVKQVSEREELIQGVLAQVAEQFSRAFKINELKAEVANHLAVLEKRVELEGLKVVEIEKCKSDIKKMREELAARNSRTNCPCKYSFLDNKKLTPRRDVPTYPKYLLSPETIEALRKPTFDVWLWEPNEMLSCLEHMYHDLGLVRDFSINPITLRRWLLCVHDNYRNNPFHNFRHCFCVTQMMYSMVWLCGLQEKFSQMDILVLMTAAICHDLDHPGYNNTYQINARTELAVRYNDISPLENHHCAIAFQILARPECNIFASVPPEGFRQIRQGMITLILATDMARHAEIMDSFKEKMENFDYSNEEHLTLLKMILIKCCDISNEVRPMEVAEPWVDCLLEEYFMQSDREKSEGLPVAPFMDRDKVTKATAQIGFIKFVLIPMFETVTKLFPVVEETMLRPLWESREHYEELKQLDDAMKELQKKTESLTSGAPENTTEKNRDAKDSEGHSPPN
Assay: not given
As to conditions: concentrations below 200 μM; cited from earlier work.
Consider `CC(C)Cn1c(=O)n(C)c(=O)c2[nH]cnc21` [IBMX], for which the “inhibition of murine PDE9A” value is recorded as “not inhibited”.

Tested on in the next data set: not given
Assay: not given
Conditions: not given
As usually defined, the melting point is the temperature, or range, at which the solid turns liquid. As to `Cc1ccccc1-n1ncc2c(=O)[nH]c(Cc3cccc(Cl)c3)nc21` (as salt: sodium) [Example 16, 6-(3-Chlorobenzyl)-1-(2-methylphenyl)-1,5-dihydro-4H-pyrazolo[3,4-d]pyrimidin-4-one], the melting point came out at 215 °C. In turn, `O=c1[nH]c(Cc2cccc(Cl)c2)nc2c1cnn2-c1ccccn1` (as salt: sodium) [Example 22, 6-(3-Chlorobenzyl)-1-(2-pyridinyl)-1,5-dihydro-4H-pyrazolo[3,4-d]pyrimidin-4-one] registered a melting point of 230 °C.

Turning to `COc1ccccc1-n1ncc2c(=O)[nH]c(Cc3cccc(Cl)c3)nc21` (as salt: sodium) [Example 23, 6-(3-Chlorobenzyl)-1-(2-methoxyphenyl)-1,5-dihydro-4H-pyrazolo[3,4-d]pyrimidin-4-one], the melting point was determined as 196 °C. `CCc1ccccc1-n1ncc2c(=O)[nH]c(Cc3cccc(Cl)c3)nc21` (as salt: sodium) [Example 18, 6-(3-Chlorobenzyl)-1-(2-ethylphenyl)-1,5-dihydro-4H-pyrazolo[3,4-d]pyrimidin-4-one] returned a melting point of 208 °C. The molecule `O=c1[nH]c(Cc2cccc(Cl)c2)nc2c1cnn2-c1ccccc1Cl` (as salt: sodium) [Example 21, 6-(3-Chlorobenzyl)-1-(2-chlorophenyl)-1,5-dihydro-4H-pyrazolo[3,4-d]pyrimidin-4-one] yielded a melting point of 188 °C. `Cc1ccccc1-n1ncc2c(=O)[nH]c(Cc3ccccn3)nc21` (as salt: sodium) [Example 17, 1-(2-Methylphenyl)-6-(2-pyridinylmethyl)-1,5-dihydro-4H-pyrazolo[3,4-d]pyrimidin-4-one]: the melting point worked out at 162 °C. Still for that read-out and setting: with `O=c1[nH]c(Cc2cccc(Cl)c2)nc2c1cnn2-c1ccccc1F` (as salt: sodium) [Example 20, 6-(3-Chlorobenzyl)-1-(2-fluorophenyl)-1,5-dihydro-4H-pyrazolo[3,4-d]pyrimidin-4-one] the figure was 197 °C; with `O=c1[nH]c(Cc2cccc(Cl)c2)nc2c1cnn2-c1ccccc1C(F)(F)F` (as salt: sodium) [Example 19, 6-(3-Chlorobenzyl)-1-(2-trifluoromethylphenyl)-1,5-dihydro-4H-pyrazolo[3,4-d]pyrimidin-4-one], 152 °C.

A further data set has as its target T1, PDE9A. Kind of data set: PDE inhibition: recombinant PDE9A scintillation proximity assay. Type of data set: biochemical. Details: made in house; host or cells: Sf9 cells (pFASTBAC baculovirus expression system). As to conditions: inhibiting effect on PDE9A, recombinant enzyme expressed in Sf9 cells, [8-3H]cGMP substrate. An excerpt: Recombinant PDE1C (GenBank/EMBL Accession Number: NM_005020, Loughney et al. J. Biol. Chem. 1996 271, 796-806), PDE2A (GenBank/EMBL Accession Number: NM_002599, Rosman et al. Gene 1997 191, 89-95), PDE3B (GenBank/EMBL Accession Number: NM_000922, Miki et al. Genomics 1996, 36, 476-485), PDE4B (GenBank/EMBL Accession Number: NM_002600, Obernolte et al. Gene. 1993, 129, 239-247), PDE5A (GenBank/EMBL Accession Number: NM_001083, Loughney et al. Gene 1998, 216, 139-147), PDE7B (GenBank/EMBL Accession Number: NM_018945, Hetman et al. Proc. Natl. Acad. Sci. U.S.A. 2000, 97, 472-476), PDE8A (GenBank/EMBL Accession Number: AF 056490, Fisher et al. Biochem. Biophys. Res. Commun. 1998 246, 570-577), PDE9A (Fisher et al., J. Biol. Chem., 1998, 273 (25): 15559-15564), E10A (GenBank/EMBL Accession Number: NM_06661, Fujishige et al. J Biol Chem. 1999, 274, 18438-45), PDE11A (GenBank/EMBL Accession Number: NM_016953, Fawcett et al. Proc. Natl. Acad. Sci. 2000, 97, 3702-3707) were expressed in Sf9 cells with the aid of the pFASTBAC baculovirus expression system (GibcoBRL).
The test substances are dissolved in 100% DMSO and serially diluted to determine their in vitro effect on PDE 9A. Typically, serial dilutions from 200 μM to 1.6 μM are prepared (resulting final concentrations in the assay: 4 μM to 0.032 μM). 2 μL portions of the diluted substance solutions are introduced into the wells of microtiter plates (Isoplate; Wallac Inc., Atlanta, Ga.). Then 50 μL of a dilution of the PDE9A preparation described above are added. The dilution of the PDE9A preparation is chosen so that less than 70% of the substrate is converted during the subsequent incubation (typical dilution: 1:10000; dilution buffer: 50 mM Tris/HCl pH 7.5, 8.3 mM MgCl2, 1.7 mM EDTA, 0.2% BSA). The substrate, [8-^3H] guanosine 3′,5′-cyclic phosphate (1 μCi/μL; Amersham Pharmacia Biotech., Piscataway, N.J.) is diluted 1:2000 with assay buffer (50 mM Tris/HCl pH 7.5, 8.3 mM MgCl2, 1.7 mM EDTA) to a concentration of 0.0005 μCi/μL. The enzyme reaction is finally started by adding 50 μL (0.025 μCi) of the diluted substrate. The assay mixtures are incubated at room temperature for 60 min and the reaction is stopped by adding 25 μl of a PDE9A inhibitor (e.g. the inhibitor from preparation example 1, final concentration 10 μM) dissolved in assay buffer. Immediately thereafter, 25 μL of a suspension containing 18 mg/mL Yttrium Scintillation Proximity Beads (Amersham Pharmacia Biotech., Piscataway, N.J.) are added. […] The plates are then measured for 30 s per well in a Microbeta scintillation counter (Wallac Inc., Atlanta, Ga.). IC50 values are determined from the graphical plot of the substance concentration versus the percentage inhibition. […]
For orientation: SPA uses beads or plates that emit light when radiolabelled molecules are held near them.
As a reminder, the IC50 is the concentration that gives 50% inhibition. With `Cc1cccc(-n2ncc3c(=O)[nH]c(Cc4cccc(Cl)c4)nc32)c1C` [Example 2, 6-(3-Chlorobenzyl)-1-(2,3-dimethylphenyl)-1,5-dihydropyrazolo[3,4-d]pyrimidin-4-one], the IC50 stood at 50 nM. Same read-out and setting: next, `Cc1ccccc1-n1ncc2c(=O)[nH]c(Cc3ccccc3Br)nc21` [Example 9, 6-(2-Bromobenzyl)-1-(2-methylphenyl)-1,5-dihydropyrazolo[3,4-d]pyrimidin-4-one]: under 30 nM; `O=c1[nH]c(Cc2cccc(Cl)c2)nc2c1cnn2-c1c(Cl)cccc1Cl` [Example 4, 6-(3-Chlorobenzyl)-1-(2,6-dichlorophenyl)-1,5-dihydropyrazolo[3,4-d]pyrimidin-4-one]: 64 nM. Same read-out and setting: next, `O=c1[nH]c(Cc2cccc(Cl)c2)nc2c1cnn2-c1ccccc1Cl` [Example 21, 6-(3-Chlorobenzyl)-1-(2-chlorophenyl)-1,5-dihydro-4H-pyrazolo[3,4-d]pyrimidin-4-one]: under 30 nM.
